The subject of data set [1] is New Zealand white rabbit fed with high fat diet. The conditions noted are these: rabbit, in vivo.
Method: The treatment groups were given APOAJ via auricular vein once a week Vehicle controls received normal saline via auricular vein once a week. […] The body weight of animal was determined every week and whole blood was drawn every three weeks. The study duration was 19 weeks. At the end of study, all animals were sacrificed. […] Male New Zealand white rabbits were used in this study. […] Blood samples were taken 12 hour after fasting before study to determine the blood lipid parameters. […] Ten to 14 rabbits were in one group. […] First dose was given 1 week before high fat diet. […] 5.2 blood lipid parameters: whole blood was drawn every three weeks. Animals were subject to 12 hour fast before taking blood. […] The upper layer of serum was then separated and examined for total cholesterol (TC), total triglyceride (TG), low density lipoprotein cholesterin (LDL-C), and high density lipoprotein cholesterin (HDL-C). Test reagents were purchased from Shanghai A: The atherosclerosis of aorta (plaque area lj) B: Liver index C: Aorta, liver, heart, arteria carotis, kidney All animals were anesthetized by 20 of ethyl carbamate and then sacrificed with air injection. Abdomen cavity was opened. Whole blood was taken from heart. Heart was harvested along with 7 em of aorta. Then other organs like liver, kidney and arteria carotis were harvested. […] Pictures were taken then. Aorta was cut from aortic arch, opened longitudinally and taken picture. […] One piece of this sample was fixed in fomlalin for further pathological analysis. The weight of liver was determined immediately. Two pieces of specimen were cut from hepatic lobe. One was kept in cryo-preservation tube for lipid analysis and another one was fixed in formalin for further pathological analysis. Animals were fast for 12 hours before taking blood samples via auricular vein. […] Test reagents were purchased from Shanghai Rong Sheng Bio-pharmaceutical Co. Ltd. The aorta was dissected and opened for 7.5 em from aortic arch longitudinally. Pictures were taken and atherosclerosis changing was analyzed.
Data set [2] relates to Influenza H1N1 A/WSN/33. Format: in vivo, BALB/c mice.
For data set [3], the system named is Influenza H1N1 A/WSN/33. Format: in vivo, BALB/c mice. The source holds these as a separate data set.
Data set [4] has as its system Influenza H1N1 A/WSN/33. Format: in vivo, BALB/c mice. Particulars: oseltamivir 30 mg/kg/day po/bid.
The next data set deals with db/db mice. The method, then: Fasting 6 hours and overnight blood glucose were measured. 60 db/db mice were assigned into 5 grouped based on the fasting 6 h blood glucose and body weight. […] 8 db/rn lean mice was used as negative control group […]
5.2. Study duration: This study was conducted in two periods: Period 1: Oct. 13, 2011-Feb. […] 13-Mar. 16, 2012: Test 3 antibody products
Feb. 13, 2012: Start the treatment with 3 antibodies by i.p every two days (Monday, Wednesday, Friday) after 8 weeks washout from previous treatment.
Antibody products were administrated by intraperitoneal injection and the positive compound was mixed into food at the dose 30 rng/kg/day.
5.4. Body weight and blood glucose measurement: Fasting 6 hours body weight and blood glucose concentration were measured by Roche giucometer weekly.
5.5. Plasma insulin measurement: About 30 ul of blood sample was collected from the orbital vein for each mouse and centrifuged 7000 rpm at 4° C. for 5 min. Plasma samples were saved in −70 l-::. The plasma insulin level was measured with EUSA kit (CRYSTAL, cat#90080), 5.6. Plasma lipid profile measurement: The plasma lipid profile were measured by the DaAn Clinic central lab.
5.7. Study taken down: After 14 dose antibody products treatment, all mice were sacrificed. Measure body weight and collect blood sample for each mouse. Measure liver weight and save one piece for pathology study and freeze one piece in liquid nitrogen for further analysis in the future. Save pancreas into 4% paraformaldehyde (PFA) fixation solution for future analysis.
(§1) The results were expressed as the Mean±SEM and statistically evaluated by student's t-test.

The test system of data set [5] is 4T1-luc breast cancer cells. The conditions noted are these: vs vehicle group. How it is done:
The cell suspension was carried to the animal room in an ice box. […] Totally 80 mice were selected and divided into 10 groups. All mice were monitored daily.
Tumor growth status was monitored by both IVIS Lumina II and a digital caliper twice weekly since the day after cell implantation.
For IVIS Lumina II measurement, bioluminescence intensity of primary tumor and metastatic tumor was obtained according to the following procedure:
1. Tumor-bearing mice were \Neighted and intra peritoneally administered luciferin at a dose of 150 mg/kg (10 ml/kg);
2. After 10 min, mice were pre-anesthetized with the mixture of oxygen and isoflurane. […]
3. ROI data was calculated with IVIS Lumina II software and relative ROI was calculated to express the tumor growth status. […]
Tumor size was measured twice a week in two dimensions using a caliper. and the tumor volume (V) was expressed in mm3 using the formula: V=0.5 a×b2 where a and bare the long and short diameters […]
2. […] Body weights were measured and recorded twice weekly.
TGI (tumor growth inhibition, in percent) was calculated according to the following equation: […]
T/C (%) was calculated based on the tumor volume data collected on Day 27.
The difference between the mean values of tumor volume in treatment and vehicle groups was analyzed for significance using one way ANOVA test at each time point after log transformation.

The subject of data set [6] is ApoE ko mice fed with high fat diet.
Source text: 10 ApoE ko mice were fed with regular chow diet and used as negative control group. 50 ApoE ko mice were fed with high fat diet (35% kcal fat, 1% cholesterol) for 8 weeks, and then the plasma samples were collected for lipid profile measurement before the treatment. 50 ApoE ko mice were assigned into 5 groups based on the fasting overnight plasma TC and HDL level.
19 Mar. 2012 to 6 Apr. 2012: Group the mice based on the TC and HDL level and start the treatment with 3 doses of antibody APOA1 by i.p daily on the weekday (The first dose was administered by iv injection
13 Apr. 2012-14 May 2012: The treatment with antibody APOA1 was changed to i.p injection every two days (Monday, Wednesday, and Friday) per client's instruction.
Antibody products were administrated by intraperitoneal injection every two days (Monday, Wednesday, and Friday). and the positive compound was administered by p.o every day.
5.4. Body weight and blood glucose measurement: The body weight was weighed weekly during the period of treatment. The fasting overnight blood glucose was measured at the end of study by Roche glucometer.
5.5 24 h food intake measurement: 24 hours food intake for each cage was measured weekly
5.6. Plasma lipid profile measurement: About 300 ul of blood sample was collected from the orbital vein for each mouse and centrifuged at 7000 rpm for 5 min at 4° C. and the plasma lipid profile was measured by Roche Modular automatic biochemistry analyzer in DaAn Medical Laboratory
After RAAS antibody products treatment for 8 weeks, all mice were sacrificed. Measured body weight and collected blood sample for each mouse. Weighed liver weight and saved a tiny piece of liver into 4% paraformaldehyde (PFA) fixation solution for further analysis. At same time, take the photos with heart, lung, aortas and two kidneys.
Scanning the glasses slides with the Aperio ScanScope system and analyze with the image proplus software to measure the area of atherosclerotic plaque session. The results were expressed as the percentage of the total aortic surface area covered by lesions. The operation procedure of software was briefly described as follow: Converted the sys version photos into JPG version, then calibrated it and subsequently selected the red regions and then calculate the total area automatically by image proplus software.
as §1

The subject of another data set is HCV. In words: HCV replicon dose-dependent curves (figure legends, genotype not stated). The conditions noted are these: FIG. 44/45 legends. Format: cell-based. The text has this: FIGS. 44-1 through 44-18.
FIGS. 451 through 45-18-.
FIGS. 44-1 through 44-18. Dose-dependent curves (CC 50 values)
FIG. 45-1 through 45-18 Dose-dependent curves (EC50 values)
(Replicon systems follow genome replication, usually without infectious particles.)

Another data set concerns HBV. In words: HBV mouse hydrodynamic injection model. Format: in vivo, BALB/c mice. How it is done: 3.1.1. From day −7 to day 0, all 5 mice in group 4 were administrated i.p./i.v. with test article daily for 8
3″ 1.2″ On day 0, all groups of mice were hydrodynamicly injected via tail vein with pcDNA3.1/HBV plasmid DNA in a volume of normal saline equal to 8% of a mouse body weight. The plasmid DNA solution for injections was prepared one day before injection and then stored in 4GC until injection”
[…] […] For group 4, the last dosing was carried out 4 hours post HOI.
3.1.4. All mice were submandibularly blec! for plasma preparation according to the design in Table 1.
3.1.5. All mice were sacrificed and c!issectec! to obtain livers (two pieces of left lobe, one piece of middle lobe and one piece of right lobe) according to the regimen in table 1. Isolated livers were snap frozen in liquid nitrogen immec!iately upon collected.
3.2.1.1 Isolate DNA from 50 pi plasma using QIAamp 96 DNA Blood Kit. DNA was eluted with
3.2.12 Run qPCR for HBV DNA quantification.
To eliminate the influence of input HBV plasmid, primers and probe targeting HBV sequence which detect newly replicated HBV DNA and input HBV plasmid DNA and targeting pcDNA3.1 plasmid backbone sequence which only detect the input plasmid DNA were used to do real-time PCR, respectively”
HBV DNA quantity=DNA determined by HBV primer-DNA determined by plasmid primer.
Dilute the plasma 500 fold;
Detect HBsAg level in 50 pl diluted plasma by using HBsAg ELISA kit.
a) Homogenize the liver tissue with Qiagen Tissue Lyser in 10 mM Tris.HCI, 10 mM EDTA, pH7.5.
The total liver DNA was diluted to 10 ng/pl. Use 10 iJI diluted sample to run real-time PCR. HBV DNA quantity=DNA determined by HBV primer-DNA determined by plasmid primer.
a) Load 50 pg DNA for each sample. Run •1.2% agarose gel in 1×TAE.

Several values for one entry are separate records, joined by “and”; a condition that tells them apart may be missing. Equal entries are not always repeated. Where two headings read alike, the source gives them in different places.

As to `CC(C)c1c(C(=O)Nc2ccccc2)c(-c2ccccc2)c(-c2ccc(F)cc2)n1CC[C@@H](O)C[C@@H](O)CC(=O)O` [Liptor, reference compound], the “calcification, pathological examination” value in data set [1] is on record as “one animal with calcification”.
Regarding `CCOC(=O)C1=C[C@@H](OC(CC)CC)[C@H](NC(C)=O)[C@@H](N)C1` [Oseltamivir, Oseltamivir phosphate (prodrug)], the “Mean day to death ± S.D.” value with Influenza H1N1 A/WSN/33 [2] (H1N1 + Oseltamivir 1 mg/kg, P<0.01 vs vehicle) is >10 ± 0.0 days. Moreover, the survival entry is “survived completely” in the data set on Influenza H1N1 A/WSN/33 [2] (oseltamivir po/bid); “survived and 4 out of 5” in the data set on Influenza H1N1 A/WSN/33 [3] (oseltamivir 1 mg/kg orally twice daily for 8 days); “survived completely” in the data set with Influenza H1N1 A/WSN/33 [4]. Further, in the data set on Influenza H1N1 A/WSN/33 [3] (mouse, in vivo), the “body weights dropped by” value is < 15%.
Regarding `CCc1ccc(CCOc2ccc(CC3SC(=O)NC3=O)cc2)nc1` (stereo not drawn) [Pioglitazone], in the data set with db/db mice (Part 1, Positive group (30 mg/kg/day in food)), the “dead mice: kidney infection” value is 1. Also, in the data set on db/db mice (db/db, mouse, in vivo, 32 days), the “dead mice: kidney bleeding” value is 1. Moreover, the “fasting overnight BG” value in the data set with db/db mice (period 1) is listed as “significantly lower blood glucose”. Besides, in the data set on db/db mice (period 1, AFOD 3 doses after 3 weeks, pioglitazone after 2 weeks), the body weight entry is reported as “significantly increased body weight”. Besides, the “blood glucose (fasting 6 h)” value in the data set with db/db mice (period 1, pioglitazone after 1 week, AFOD low dose after 8 doses) was “significantly reduced blood glucose”. For the same compound, in the data set on db/db mice (period 2), the “blood glucose (fasted 6 h)” value is “significant difference on blood glucose”; the “liver weight and ratio of liver/body weight” value is given as “effect on reducing the ratio”. Further, in the data set on db/db mice (period 2, after 4 weeks treatment), the “overnight fasting blood glucose” value was “significantly reduced the fasting overnight blood glucose level”. Besides, the plasma triglyceride level result in the data set on db/db mice (period 2, after 5 weeks treatment) is recorded as “significantly lowered”. In addition, the body weight result in the data set with db/db mice (period 2, vs vehicle group) is given as “effect on increasing body weight”. For the same compound, the “plasma insulin resistance (HOMA-IR)” value with db/db mice (period 2, AFOD after 14 doses (p=0.054), pioglitazone after 5 weeks (p=0.051)) is “trend on improving insulin resistance”.
In the case of `Nc1ccn([C@@H]2O[C@H](CO)[C@@H](O)C2(F)F)c(=O)n1` [gemcitabine, reference compound], in data set [5] (Day 20), the “one-way ANOVA analysis on tumor volume changes” value is given as “*′**”. In addition, the tumor volume result in data set [5] (gemcitabine since day 13) is listed as “significant tumor volume reduction”.
`CC(C)c1c(C(=O)Nc2ccccc2)c(-c2ccccc2)c(-c2ccc(F)cc2)n1CC[C@@H](O)C[C@@H](O)CC(=O)O` [Atorvastatin, reference compound]: the “arteriosclerosis plaque lesion in the region of thoracic aorta (root plaque area)” value in [6] (APOA1 mid dose and low dose, not significant vs vehicle) is “trend of reducing the arteriosclerosis plaque lesion”. Besides, the “fasting overnight blood glucose” value in data set [6] (after 8 weeks treatment vs vehicle) is listed as “no effect”. In [6] (after 8 weeks treatment, APOA1 low dose), the “atherosclerosis plaque lesion area of aorta” value is “significant reduced the plaque lesion area”. For the same compound, the Liver weight result in data set [6] (atorvastatin 20 mg/kg, after 8 weeks treatment) is “reduced liver weight and the ratio of liver/body weight significantly”. The “atherosclerosis plaque lesion from the aortic root to right renal artery” value in data set [6] (atorvastatin p=0.08) is reported as “trend of reducing the atherosclerosis plaque lesion”. Further, in data set [6] (vs vehicle group, atorvastatin after 5 weeks treatment), the body weight result is listed as “significantly reduced the body weight”.
For the compound `CCOC(=O)C1=C[C@@H](OC(CC)CC)[C@H](NC(C)=O)[C@@H](N)C1` [Oseltarnivir], the Survivor/total with Influenza H1N1 A/WSN/33 [3] (H1N1 + Oseltamivir po BID, dose cell prints 0.2/0.4 ml/mouse) is 4/4. In addition, the “Mean day to death ± S.D.” value in the data set with Influenza H1N1 A/WSN/33 [3] (H1N1 + Oseltamivir po BID, dose cell prints 0.2/0.4 ml/mouse, P<0.001 vs vehicle) was >14 ± 0.0 days.
As for APOA 1, the “Wounded (number of mice)” value in data set [6] (APOA 1 high dose group) and in data set [6] (APOA 1 mid dose group) was 1 in each case. Also, the “Dead (number of mice)” value in [6] (APOA 1 high dose group, reason: Kidney infection & i.v injection) is given as 2; in data set [6] (APOA 1 mid dose group, reason: Blood collection), 1.
Consider `NC(=O)c1ncn([C@@H]2O[C@H](CO)[C@@H](O)[C@H]2O)n1` [Ribavirin], for which the “inhibition of HCV” value in the data set with HCV stood at 50%.
Consider `C=C1[C@H](CO)[C@@H](O)C[C@@H]1n1cnc2c(=O)[nH]c(N)nc21` [ETV, Entecavir], for which the “HBV intermediate DNA in livers (real-time PCR)” value in the data set on HBV (ETV day 5, RASS 8 prophylactic treatment day 7) is “significantly decreased the HBV intermediate DNA in liver”. Further, the “ssDNA, HBV replication intermediate DNA in livers (southern blot)” value in the data set on HBV (RASS 8 prophylactic treatment or ETV treatment) is “decreased dramatically”. In addition, the “inhibition to the HBV replication (plasma)” value with HBV (therapeutically treated, from day 3 post HDI to end) is given as “significant inhibition”. In addition, in the data set with HBV (within 5 days post HBV HDI, RASS 8 therapeutic and prophylactic), the “HBsAg level in plasma (ELISA)” value was “didn't have significant inhibition”.

(Values after patent US20170198027A1 (priority 2012, published 2017).)
